Test results as given in ChEMBL document CHEMBL1150663, “Pachastrissamine, a cytotoxic anhydrophytosphingosine from a marine sponge, Pachastrissa sp” (J Nat Prod, 2002).

How the values were obtained:
Format in all cases: functional, cell-based
SK-MEL-28 = assay: Cytotoxicity against human SK-MEL-28 cells after 3 days; conditions: SK-MEL-28, 72 h
HT-29 = assay: Cytotoxicity against human HT-29 cells after 3 days; conditions: HT-29, 72 h
P388 = assay: Cytotoxicity against mouse P388 cells after 3 days; conditions: P388, 72 h
A549 = assay: Cytotoxicity against human A549 cells after 3 days; conditions: A549, 72 h

Measured: IC50

CCCCCCCCCCCCCC[C@@H]1OC[C@H](N)[C@@H]1O [PACHASTRISSAMINE]
0.01 µg/mL: all assays above
